Results reported in the OligoGym collection.
Several values for one entry are separate records, joined by “and”; a condition that tells them apart may be missing. Identical values can stand only once. After the bases stand the sugars from the 5' end (letter, count) and the backbone: PS all phosphorothioate, else s phosphorothioate and o phosphodiester by linkage. Methylation of C is not given here. e = 2'-O-(2-methoxyethyl) (MOE); k = constrained ethyl (cEt); d = 2'-deoxy (DNA)

Target: SOD1
Conditions: ASO

Q: How did the target mRNA inhibition (HepG2, 5 µM) turn out when “CATCTTTGTCAGCAGTCACA (sugars e5 d10 e5, PS)” was run?
A: 34% and 13%

Q: With “CATTACTTTCCTTCTGC (sugars e3 k2 d7 k2 e3, PS)” as the sequence, how does the target mRNA inhibition (HepG2, 3 µM) read?
A: 28%

Q: With “CCAACATGCCTCTCTTC (sugars e3 k2 d7 k2 e3, PS)” as the sequence, how does the target mRNA inhibition (HepG2, 3 µM) read?
A: 0%

Q: “CCAAGGGAATGTTTATT (sugars e2 k2 d9 k2 e2, PS)” was tested. Which target mRNA inhibition (HepG2, 4 µM) did it give?
A: 52%

Q: Which target mRNA inhibition (HepG2, 5 µM) does the source give for “CCAAGTGATCATAAATCAGT (sugars e5 d10 e5, PS)” here?
A: 39%

Q: With “CCAATTACACCACAAGC (sugars e2 k2 d9 k2 e2, PS)” as the sequence, how does the target mRNA inhibition (HepG2, 0.1875 µM) read?
A: 7%

Q: What about the target mRNA inhibition (HepG2, 0.75 µM) of the same sequence?
A: 32%

Q: And the target mRNA inhibition (HepG2, 3 µM)?
A: 77%

Q: And the target mRNA inhibition (HepG2, 4 µM)?
A: 73%

Q: What about the target mRNA inhibition (HepG2, 12 µM) of the same sequence?
A: 96%

Q: How did the target mRNA inhibition (HepG2, 4 µM) turn out when “CCAGCACCCCGTCTCCGCGA (sugars e5 d10 e5, PS)” was run?
A: 38%

Q: How did the target mRNA inhibition (HepG2, 4 µM) turn out when “CCATAACTCGCTAGGCCACG (sugars e5 d10 e5, PS)” was run?
A: 22%

Q: How did the target mRNA inhibition (HepG2, 3 µM) turn out when “CCATACAGGGTTTTTAT (sugars e3 k2 d7 k2 e3, PS)” was run?
A: 1%

Q: “CCATCTGTGATTTAAGT (sugars e2 k2 d8 k2 e3, PS)” was tested. Which target mRNA inhibition (HepG2, 5 µM) did it give?
A: 46%

Q: “CCATCTGTGATTTAAGT (sugars e2 k2 d9 k2 e2, PS)” was tested. Which target mRNA inhibition (HepG2, 5 µM) did it give?
A: 47%

Q: How did the target mRNA inhibition (HepG2, 3 µM) turn out when “CCATTACTTTCCTTCTG (sugars e3 k2 d7 k2 e3, PS)” was run?
A: 37%

Q: “CCCACCGTGTTTTCTGGATA (sugars e5 d10 e5, PS)” was tested. Which target mRNA inhibition (HepG2, 5 µM) did it give?
A: 46% and 40%

Q: Which target mRNA inhibition (HepG2, 3 µM) does the source give for “CCCACTCTGGCCCCAAA (sugars e3 k2 d7 k2 e3, PS)” here?
A: 15%

Q: For “CCCATCTGTGATTTAAG (sugars e2 k2 d9 k2 e2, PS)”, which target mRNA inhibition (HepG2, 5 µM) is on record?
A: 49%

Q: Which results are given for “CCGTCGCCCTTCAGCACGCA (sugars e5 d10 e5, linkages s1 o4 s10 o2 s2)”?
A: target mRNA inhibition (A431, 0.062 µM): 12%; target mRNA inhibition (A431, 0.185 µM): 13%; target mRNA inhibition (A431, 0.556 µM): 14%; target mRNA inhibition (A431, 1.667 µM): 4%; target mRNA inhibition (A431, 5 µM): 18%; target mRNA inhibition (A431, 15 µM): 7%; target mRNA inhibition (SH-SY5Y, 0.062 µM): 16%; target mRNA inhibition (SH-SY5Y, 0.185 µM): 5%; target mRNA inhibition (SH-SY5Y, 0.556 µM): 19%; target mRNA inhibition (SH-SY5Y, 1.667 µM): 36%; target mRNA inhibition (SH-SY5Y, 5 µM): 68%; target mRNA inhibition (SH-SY5Y, 15 µM): 80%

Q: How did the target mRNA inhibition (HepG2, 4 µM) turn out when “CGCCATAACTCGCTAGGCCA (sugars e5 d10 e5, PS)” was run?
A: 59%

Q: Which target mRNA inhibition (HepG2, 3 µM) does the source give for “CGCCCACTCTGGCCCCA (sugars e3 k2 d7 k2 e3, PS)” here?
A: 14%

Q: “CGCGACTACTTTATAGG (sugars e3 k2 d7 k2 e3, PS)” was tested. Which target mRNA inhibition (HepG2, 3 µM) did it give?
A: 11%

Q: How did the target mRNA inhibition (HepG2, 4 µM) turn out when “CGCTAGGCCACGCCGAGGTC (sugars e5 d10 e5, PS)” was run?
A: 52%

Q: Which target mRNA inhibition (HepG2, 4 µM) does the source give for “CGCTGCAGGAGACTACGACG (sugars e5 d10 e5, PS)” here?
A: 23%

Q: How did the target mRNA inhibition (HepG2, 0.1875 µM) turn out when “CTACAGCTAGCAGGATA (sugars e2 k2 d9 k2 e2, PS)” was run?
A: 30%

Q: What about the target mRNA inhibition (HepG2, 0.75 µM) of the same sequence?
A: 80%

Q: What about the target mRNA inhibition (HepG2, 3 µM) of the same sequence?
A: 93%

Q: And the target mRNA inhibition (HepG2, 4 µM)?
A: 91%

Q: And the target mRNA inhibition (HepG2, 12 µM)?
A: 97%

Q: Which results are given for “CTACAGCTAGCAGGATA (sugars e3 k2 d7 k2 e3, PS)”?
A: target mRNA inhibition (HepG2, 0.1875 µM): 44%; target mRNA inhibition (HepG2, 0.75 µM): 62%; target mRNA inhibition (HepG2, 3 µM): 55% and 80%; target mRNA inhibition (HepG2, 12 µM): 86%

Q: Which target mRNA inhibition (HepG2, 5 µM) does the source give for “CTACAGGTACTTTAAAG (sugars e2 k2 d9 k2 e2, PS)” here?
A: 16%

Q: “CTCACTACAGGTACTTT (sugars e2 k2 d9 k2 e2, PS)” was tested. Which target mRNA inhibition (HepG2, 5 µM) did it give?
A: 54%

Q: “CTCAGACTACATCCAAG (sugars e2 k2 d9 k2 e2, PS)” was tested. Which target mRNA inhibition (HepG2, 0.1875 µM) did it give?
A: 0%

Q: And the target mRNA inhibition (HepG2, 0.75 µM)?
A: 40%

Q: What about the target mRNA inhibition (HepG2, 3 µM) of the same sequence?
A: 78%

Q: What about the target mRNA inhibition (HepG2, 4 µM) of the same sequence?
A: 76%

Q: And the target mRNA inhibition (HepG2, 12 µM)?
A: 92%

Q: Which results are given for “CTCAGACTACATCCAAG (sugars e3 k2 d7 k2 e3, PS)”?
A: target mRNA inhibition (HepG2, 0.1875 µM): 42%; target mRNA inhibition (HepG2, 0.75 µM): 72%; target mRNA inhibition (HepG2, 3 µM): 76% and 88%; target mRNA inhibition (HepG2, 12 µM): 90%

Q: Which target mRNA inhibition (HepG2, 5 µM) does the source give for “CTCATAATAAGTGCCAT (sugars e2 k2 d9 k2 e2, PS)” here?
A: 44%

Q: For “CTCGCTAGGCCACGCCGAGG (sugars e5 d10 e5, PS)”, which target mRNA inhibition (HepG2, 4 µM) is on record?
A: 46%

Q: Which target mRNA inhibition (HepG2, 3 µM) does the source give for “CTCTTCATCCTTTGGCC (sugars e3 k2 d7 k2 e3, PS)” here?
A: 26%

Q: “CTGACAAGTTTAATACC (sugars e2 k2 d9 k2 e2, PS)” was tested. Which target mRNA inhibition (HepG2, 5 µM) did it give?
A: 36%

Q: With “CTGCACTGGGCCGTCGCCCT (sugars e5 d10 e5, PS)” as the sequence, how does the target mRNA inhibition (HepG2, 4 µM) read?
A: 24%

Q: How did the target mRNA inhibition (HepG2, 5 µM) turn out when “CTGCACTGGTACAGCCTGCT (sugars e5 d10 e5, PS)” was run?
A: 38% and 29%

Q: How did the target mRNA inhibition (HepG2, 3 µM) turn out when “CTGCTTTTTCATGGACC (sugars e3 k2 d7 k2 e3, PS)” was run?
A: 65%

Q: For “CTTCACTGGTCCATTAC (sugars e3 k2 d7 k2 e3, PS)”, which target mRNA inhibition (HepG2, 3 µM) is on record?
A: 11%

Q: How did the target mRNA inhibition (HepG2, 3 µM) turn out when “CTTCATCCTTTGGCCCA (sugars e3 k2 d7 k2 e3, PS)” was run?
A: 35%

Q: Which target mRNA inhibition (HepG2, 5 µM) does the source give for “CTTCCAAGTGATCATAA (sugars e2 k2 d9 k2 e2, PS)” here?
A: 54%
